How the values were obtained:
[1] = tested on: differentiated SH-SY5Y human neuroblastoma cells; test: MTT assay, neuroprotective effects against Aβ1-42 cytotoxicity; format: cell-based; conditions: 24 h, read-out: increase in the cell viability (MTT assay)
Experimental: Cell cultures and differentiation: SH-SY5Y cell line were growth in DMEM:F12 (1:1) media including 10% FBS and 1% penicillin/streptomycin at 37 °C and 5% CO2 until cells reach confluence. Then, cells harvested via using trypsin/EDTA solution and transferred to 48 well plates. For differentiation, media were changed to supplemented media with 10 µg/mL retinoic acid and incubated for 5 days. Finally, media were changed into serum free media supplementing with both 10 µM retinoic acid and 25 ng/mL BDNF. Differentiated cells were determined under invert microscope and the cells were used within 10 days (Encinas M, Iglesias M, Liu Y, Wang H, Muhaisen A, Ceña V, Gallego C, Comella JX. Sequential treatment of SH-SY5Y cells with retinoic acid and brain-derived neurotrophic factor gives rise to fully differentiated, neurotrophic factor-dependent, human neuron-like cells. J. Neurochem. 2002; 75:991-1003 e Cheung YT, Lau WKW, Yu MS, Lai CSW, Yeung SC, So KF, Chang RCC. Effects of all-trans-retinoic acid on human SH-SY5Y neuroblastoma as in vitro model in neurotoxicity research. Neurotoxicol. 2009; 30:127-135).
(§1) Control cells (n = 6) were cultured under normal conditions. 1% Triton X, ascorbic acid (10 µM) and hydrogen peroxide (H2O2, 25 µM) were used as positive controls for cell viability, TAC and TOS analysis, respectively.
The cultures without BLA, MEM, or LA were studied as negative control group. 1% Triton-X was added to the culture media to provide negative control group. MTT reduction and LDH release observed after 24 h of Aβ1-42-exposure at 20 µM.

[2] = tested on: cultured human blood cells; test: Nucleic acid oxidation, 8-hydroxy-2'-deoxyguanosine assay; format: cell-based
From the text: (§2) All volunteers have signed informed consent.
Nucleic acid oxidation: 8-hydroxy-2'-deoxyguanosine assay kits (Cayman Chemical®) was used for determining 8- OH-dG levels in the cultures. It is a competitive assay that can be used for the quantification of 8-OHdG in homogenates and recognizes both free 8-OHdG and DNA-incorporated 8-OH-dG. This assay depends on the competition between 8-OH-dG and 8-OH-dGacetylcholinesterase (AChE) conjugate for a limited amount of 8-OH-dG monoclonal antibody (Abdel-Wahab BA, Metwally ME. Ginkgo biloba enhances the anticonvulsant and neuroprotective effects of sodium valproate against kainic acid-induced seizures in mice. J Pharmacol Toxicol. 2011; 6:679-690). All procedures were carried out in accordance with the provider's manual.
The levels of 8-OH-dG, a sensitive marker of oxidative DNA damage, were quantified about mitomycin (MMC) treatment. […] On the contrary, 8-OH-dG levels were not increased in the blood cells that were treated with BLA, MEM, and LA concentrations.

[3] = tested on: differentiated SH-SY5Y human neuroblastoma cells; test: LDH assay, neuroprotective effects against Aβ1-42 cytotoxicity; format: cell-based; conditions: with 20 µM Aβ1-42, 24 h
Experimental: Cell cultures and differentiation: SH-SY5Y cell line were growth in DMEM:F12 (1:1) media including 10% FBS and 1% penicillin/streptomycin at 37 °C and 5% CO2 until cells reach confluence. Then, cells harvested via using trypsin/EDTA solution and transferred to 48 well plates. For differentiation, media were changed to supplemented media with 10 µg/mL retinoic acid and incubated for 5 days. Finally, media were changed into serum free media supplementing with both 10 µM retinoic acid and 25 ng/mL BDNF.
(§3) Cytotechnol. 2015; 67:299-309.
as §1
The cultures without BLA, MEM, or LA were studied as negative control group. 1% Triton-X was added to the culture media to provide negative control group.

[4] = tested on: differentiated SH-SY5Y cells; test: Apoptosis detection by Hoechst 33258 staining; format: cell-based, human; conditions: 25 and 50 µM co-treatment, 20 µM Aβ1-42, 24 h
Experimental: Apoptosis detection by Hoechst 33258 staining: Hoechst 33258 staining was used to detect apoptotic nuclei. […] Then, cells fixed with 4% paraformaldehyde in phosphate buffered saline at 4 °C for 30 min. After washing cells with PBS, the nuclear DNAs were incubated with […] Hoechst 33258 fluorescent dye for 5 min at room temperature. Cells were observed and photographed under a fluorescence microscopy (Leica® DM IL LED).

[5] = tested on: SHSY-5Y human neuroblastoma cell line; test: Antitumor activity, MTT and LDH assays; format: cell-based; conditions: dose-dependent
Experimental: as §3
Antitumor activity of BLA and MEM was tested on SHSY-5Y human neuroblastoma cell line using MTT and LDH assays. Cells were grown to near-confluency before treatment. Growth of the cell line was inhibited by both drug application in a dose-dependent manner.

human neuron-like cells = test: Apoptosis-Necrosis assay (Annexin V-FITC/PI flow cytometry); format: cell-based; conditions: concentration not given
Experimental: Apoptosis-Necrosis assay: the frequencies of viable, apoptotic and necrotic cells were detected with the Annexin V-FITC apoptosis detection Kit I (BD Pharmingen, USA). Briefly, 5 x 10^4 cells were collected by centrifugation and cells resuspended in 500 µL of 1X binding buffer. Then, 5 µL of Annexin V-FITC and 5 µl of propidium iodide (PI 50 µg/ml) were added to the cultures and incubated 5 min in the dark. After that, cells fixed with 4% paraformaldehyde in phosphate buffered saline at 4 °C for 30 min. Cells from each well were stained according to the manufacturer's instructions and analyzed using a flow cytometer (CyFlow Cube 6, Partec, Germany). A computer system was used for data acquisition and analysis. Four different populations of cells are detected with the Annexin V-FITC kit: viable cells that are annexin negative and PI negative and express no fluorescence, early apoptotic cells that are annexin positive and PI negative and that express green fluorescence, late apoptotic/necrotic cells that are annexin positive and PI positive and that express green and orange fluorescence, necrotic cells that are annexin negative and PI positive and that express orange fluorescence (Majstorovic I, Vucevic D, Pavlovic B, Vasilijic S, Colic M. An anti-DEC-205 monoclonal antibody stimulates binding of thymocytes to rat thymic dendritic cells and promotes apoptosis of thymocytes. Cent Eur J Immunol. 2014; 39:411-418) .
BLA was considered as more able to protect the human neuron-like cells from Aβ1-42-induced necrosis and late apoptosis than LA or MEM.

[6] = tested on: differentiated SH-SY5Y cells; test: TAC and TOS analysis in cellular model of Alzheimer's disease; format: cell-based, human; conditions: co-treatment with Aβ1-42
Experimental: TAC and TOS analysis: the automated TAC and TOS assays were carried out by commercially available kits (Rel Assay^(R) Diagnostics, Gaziantep, Turkey) on samples from the cultures.
as §1
Figure 5 and 6 show the effects of BLA and MEM treatments on TAC and TOS levels in cellular model of Alzheimer's disease, respectively.

[7] = tested on: cultured human lymphocytes; test: SCE assay (genotoxicity); format: cell-based
Experimental: as §2
SCE assay: to provide successive visualization of SCEs, 5-bromo-2-deoxyuridine was added at culture cells. Exactly 70 h and 30 min after beginning of the incubations, demecolcine ([…]) was added to the cultures. After hypotonic treatment (0.075 M KCl), followed by three repetitive cycles of fixation in methanol/acetic acid solution (3:1, v/v), centrifugation and re-suspension, the cell suspension was dropped onto chilled, grease-free microscopic slides, air-dried, aged for three days, and then differentially stained for the inspection of the SCE rate according to the fluorescence plus Giemsa (FPG) procedure. For each treatment condition, well-spread twenty-five second division metaphases containing 42-46 chromosomes per cell were scored and the values obtained were calculated as SCEs per cell.
The frequencies of sister chromatid exchanges (SCEs) with increasing BLA concentrations were investigated in cultured human lymphocytes.

[8] = target: T1, acetylcholinesterase (AChE) (Homo sapiens, UniProt P22303); test: AChE activity in cellular model of Alzheimer's disease; format: cell-based; conditions: with 20 µM Aβ1-42, 24 h
T1 construct: endogenous in cells
Experimental: Determination of AChE activity: the activity of AChE within the cellular Alzheimer Disease's model was measured by the Acetylcholinesterase Assay Kit (Colorimetric) from Abcam^(R) (Cambridge, MA, USA) according to the manufacturer's recommended protocol.
AChE activity was evaluated in differentiated SH-SY5Y cells treated with BLA, LA, MEM (25 and 50 µM) or media alone for 24 h.

[9] = cited from earlier work

T1 sequence (P22303 32-614): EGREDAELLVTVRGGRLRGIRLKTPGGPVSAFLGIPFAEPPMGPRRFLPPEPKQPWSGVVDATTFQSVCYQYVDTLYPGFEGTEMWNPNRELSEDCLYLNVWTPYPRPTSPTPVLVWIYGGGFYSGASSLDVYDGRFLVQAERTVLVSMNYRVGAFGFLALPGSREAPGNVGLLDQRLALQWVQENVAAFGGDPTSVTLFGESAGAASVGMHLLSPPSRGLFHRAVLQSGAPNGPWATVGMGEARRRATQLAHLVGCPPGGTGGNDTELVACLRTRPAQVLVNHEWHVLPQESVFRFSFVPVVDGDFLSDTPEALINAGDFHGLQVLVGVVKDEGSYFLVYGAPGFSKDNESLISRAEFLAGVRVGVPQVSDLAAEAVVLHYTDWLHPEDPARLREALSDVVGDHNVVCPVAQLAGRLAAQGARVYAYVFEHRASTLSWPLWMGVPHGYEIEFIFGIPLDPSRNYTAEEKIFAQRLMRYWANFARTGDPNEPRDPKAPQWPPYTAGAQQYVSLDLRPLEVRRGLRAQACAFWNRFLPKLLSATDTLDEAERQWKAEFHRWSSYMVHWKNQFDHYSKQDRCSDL

CC12CC3CC(C)(C1)CC(N)(C3)C2 [MEM, memantine]
viability at 25 µM [1]: 17.3%
viability at 50 µM [1]: 19.4%
viability at 100 µM [1]: 17.1%
8-OH-dG levels [2]: not increased
increase in the cell viability (inhibited LDH release) ([3]; 25 µM): 56.81%
increase in the cell viability (inhibited LDH release) ([3]; 50 µM): 59.15%
increase in the cell viability (inhibited LDH release) ([3]; 100 µM): 57.28%
nuclear integrity and apoptosis by Aβ1-42 (Hoechst 33258) [4]: protected nuclear integrity and inhibited apoptosis
antitumor effects (growth inhibition) [5]: moderate antitumor effects
decreased the necrotic cell percentage by Aβ1-42 (human neuron-like cells): 65.97%
Aβ1-42-induced decreases of TAC and increases of TOS levels [6]: modulated
frequencies of sister chromatid exchanges (SCEs) [7]: not higher than the control group
reduced Aβ-induced AChE activity ([8]; 25 µM): 14.57%
reduced Aβ-induced AChE activity ([8]; 50 µM): 19.47%

CO[C@@]12[C@H](COC(N)=O)C3=C(C(=O)C(C)=C(N)C3=O)N1C[C@@H]1N[C@@H]12 [MMC, mitomycin]
8-OH-dG concentrations ([2]; 10^-7 M, 24 h, positive control): significantly increased

N[C@@H](Cc1ccc(B(O)O)cc1)C(=O)O [p-borophenyalanine]
safe for humans at doses up to [9]: up to 900 mg/kg

Source: patent EP3495372B1 (priority 2017, dated 2019)
